The source of these data is publication PMC6273627, “Extended N-Arylsulfonylindoles as 5-HT6 Receptor Antagonists: Design, Synthesis & Biological Evaluation” (Molecules, 2016).

The nature of one data set: 1H-NMR pKa determination. In kind it is physicochemical. The conditions noted are these: D2O solution; 1H-NMR titration in D2O, 298 K, corrected for H2O; piperazine nitrogen; read-out: pKa (pKa2). Here is the method: All NMR spectra were performed on a Bruker Avance III HD-400 MHz spectrometer at 298 K. The ^1H-NMR experiments were acquired using water suppression in order to suppress the residual HDO signal. Solutions of the 3b and 4g 2 mM in D2O were prepared adding acetone 200 μM as an internal standard. The titrations were carried out progressively in a single NMR sample for each compound. The pH was adjusted with 0.1 mol/L of NaOH and 0.1 mol/L HCl, to cover the pH ranges 4.65–9.11 and 5.58–9.46 for 3b and 4g solutions, respectively. […] The chemical shifts (δ ppm) of the piperazine methylene protons were plotted against the pH for both compounds. The pKa were obtained from the inflection point of the resulting sigmoidal curve, for each compound.
The signal to upfield of the doublet of methylene protons of the piperazine ring was used to plot δ ppm vs. pH. In this case, the pKa^D correspond to inflection point in the resulting sigmoidal curve from the plot δ ppm vs. pH, for each compound (Figure 7B,D). […] The pKa value determined in D2O was corrected for H2O using the Krezel et al. equation [59].
The chemical shift is affected by the chemical and, consequently, the magnetic environment. Therefore, the protonation of basic species such as the nitrogen atoms in piperazine ring induce important changes in the chemical environment in the adjacent proton groups. […]

Data set [1] concerns the target T1, cloned human 5-HT6-expressing cell line (HTS111RTA) (Homo sapiens, UniProt P50406).
T1 construct: host or cells: purchased ready-to-assay cell line
As to the kind of experiment: intracellular calcium mobilization assay (antagonism of 2-Me 5-HT). Type of data set: cell-based. The conditions noted are these: for IC50: antagonism of 2-Me-5-HT (500 nM) intracellular calcium mobilization. Background: Calcium flux is commonly read through the fluorescence of an indicator in the cells.

Another data set deals with 5-HT6R. As to conditions: cited from earlier work.

Molecules are shown by their SMILES. Where “and” joins values, the source holds several entries; their conditions need not be identical. Equal entries are not always repeated. Where two headings read alike, the source gives them in different places.

T1 sequence (P50406 whole entry): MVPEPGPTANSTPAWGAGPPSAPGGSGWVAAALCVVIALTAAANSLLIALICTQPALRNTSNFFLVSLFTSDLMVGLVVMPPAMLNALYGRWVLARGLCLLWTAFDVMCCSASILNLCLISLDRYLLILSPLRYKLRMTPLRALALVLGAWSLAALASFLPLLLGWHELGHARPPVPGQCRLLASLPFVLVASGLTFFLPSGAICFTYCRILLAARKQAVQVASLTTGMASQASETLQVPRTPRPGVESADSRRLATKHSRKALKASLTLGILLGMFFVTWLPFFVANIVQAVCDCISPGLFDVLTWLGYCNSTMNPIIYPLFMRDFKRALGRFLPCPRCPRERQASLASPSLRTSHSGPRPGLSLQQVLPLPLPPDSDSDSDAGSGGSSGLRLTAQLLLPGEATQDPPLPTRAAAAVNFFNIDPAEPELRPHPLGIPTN

Usually pKa stands for the pH at which an ionisable group is half protonated. By melting point is commonly meant the temperature of the solid-liquid transition. As to `COc1ccccc1N1CCN(CC(=O)c2cn(S(=O)(=O)c3ccc(C)cc3)c3ccccc23)CC1` [Compound 3b, 2-(4-(2-Methoxyphenyl)piperazin-1-yl)-1-(1-tosyl-1H-indol-3-yl)ethanone], the melting point is 132.3 to 133.6 °C and 132 to 134 °C. Moreover, the pKa in “1H-NMR pKa determination” was determined as 5.72.
`COc1ccc(S(=O)(=O)n2cc(C(O)CN3CCOCC3)c3ccccc32)cc1` (stereo not drawn) [Compound 4l, 1-(1-(4-Methoxyphenylsulfonyl)-1H-indol-3-yl)-2-morpholinoethanol] gave a melting point of 149 to 152 °C.
What is called IC50 is the concentration that inhibits the measured activity by half. `O=S(=O)(c1ccc(I)cc1)n1cc(C(O)CN2CCN(c3ncccn3)CC2)c2ccccc21` (stereo not drawn) [Compound 4h, 1-(1-(4-Iodophenylsulfonyl)-1H-indol-3-yl)-2-(4-(pyrimidin-2-yl)piperazin-1-yl)ethanol] yielded a melting point of 171 to 172 °C. For the same molecule, the concentration for half-maximal inhibition (IC50) in data set [1] stood at 75 nM.
As to `O=C(CN1CCN(c2ccccn2)CC1)c1cn(S(=O)(=O)c2cccc3ccccc23)c2ccccc12` [Compound 3i, 1-(1-(Naphthalen-1-ylsulfonyl)-1H-indol-3-yl)-2-(4-(pyridin-2-yl)piperazin-1-yl)ethanone], the melting point lay within 76 to 77 °C.
Regarding `Cc1ccc(S(=O)(=O)n2cc(C(=O)CN3CCN(c4ccccn4)CC3)c3ccccc32)cc1` [Compound 3a, 2-(4-(Pyridyl-2-yl)piperazin-1-yl)-1-(1-tosyl-1H-indol-3-yl)ethanone], the melting point was 74.9 to 75.7 °C and 75 to 76 °C.
On to `COc1ccccc1N1CCNCC1` [2-methoxyphenyl piperazine], for which the “5-HT6R affinity compared with the compounds here reported” value with 5-HT6R was “substantially lower affinity”.
What is called pKi is the Ki on a negative log10 scale, so that one unit is a factor of ten. `CN1CCC(c2cn(S(=O)(=O)c3ccc(F)cc3)c3ccccc23)C1` (stereo not drawn) [II]: the negative-log Ki (pKi) at 5-HT6R (Figure 1, known ligands) is on record as 8.70.
For the molecule `O=S(=O)(c1ccc(F)cc1)n1cc(C2=CCCNC2)c2ccccc21` [III], on 5-HT6R (Figure 1, known ligands), the negative logarithm of the Ki (pKi) is listed as 8.70.
With `O=C(CN1CCN(c2ncccn2)CC1)c1cn(S(=O)(=O)c2ccc(Cl)cc2)c2ccccc12` [Compound 3d, 1-(1-(4-Chlorophenylsulfonyl)-1H-indol-3-yl)-2-(4-(pyrimidin-2-yl)piperazin-1-yl)ethanone], the melting point is 168 to 169 °C.
`COc1ccccc1N1CCN(CC(O)c2cn(S(=O)(=O)c3cccc4ccccc34)c3ccccc23)CC1` (stereo not drawn) [Compound 4j, 2-(4-(2-Methoxyphenyl)piperazin-1-yl)-1-(1-(naphthalen-1-ylsulfonyl)-1H-indol-3-yl)ethanol]: in data set [1], the “inhibition of 2-Me-5HT-induced Ca2+ mobilization” value is listed as “strong inhibition” and the half-maximal inhibitory concentration (IC50) was determined as 32 nM.
`COc1ccccc1N1CCN(CC(=O)c2cn(S(=O)(=O)c3ccc(I)cc3)c3ccccc23)CC1` [Compound 3g, 1-(1-(4-Iodophenylsulfonyl)-1H-indol-3-yl)-2-(4-(2-methoxyphenyl)piperazin-1-yl)ethanone] came in with a melting point of 182 to 183 °C.
On the same count and under the same terms, to `O=C(CN1CCN(c2ncccn2)CC1)c1cn(S(=O)(=O)c2ccc(I)cc2)c2ccccc12` [Compound 3h, 1-(1-(4-Iodophenylsulfonyl)-1H-indol-3-yl)-2-(4-(pyrimidin-2-yl)piperazin-1-yl)ethanone] belongs 184 to 185 °C.
In turn, `COc1ccccc1N1CCN(CC(O)c2cn(S(=O)(=O)c3ccc(I)cc3)c3ccccc23)CC1` (stereo not drawn) [Compound 4g, 1-(1-(4-Iodophenylsulfonyl)-1H-indol-3-yl)-2-(4-(2-methoxyphenyl)piperazin-1-yl)ethanol] showed a melting point of 109 to 110 °C. In data set [1], the “inhibition of 2-Me-5HT-induced Ca2+ mobilization” value is on record as “strong inhibition” and the 50% inhibitory concentration (IC50) is 204 nM. In addition, the pKa in “1H-NMR pKa determination” is 6.69.
`CN1CC(Cl)=C(c2cn(S(=O)(=O)c3ccccc3)c3ccccc23)C1` [VI]: the pKi on 5-HT6R (Figure 1, known ligands) is reported as 8.57.
For orientation: EC50 means the midpoint of the concentration-response curve. Consider `Cc1[nH]c2ccc(O)cc2c1CCN` [2-Me 5-HT, reference compound], for which, on 5-HT6R (Figure 1, known ligands), the pKi is listed as 7.34. Also, the EC50 in data set [1] was determined as 119 nM.
Regarding `CN1CCC[C@@H]1Cc1cn(S(=O)(=O)c2ccccc2)c2ccccc12` [V], the negative logarithm of the Ki (pKi) on 5-HT6R (Figure 1, known ligands) is reported as 9.52.
Regarding `CCN(CC)C(=O)[C@@H]1C=C2c3cccc4[nH]cc(c34)C[C@H]2N(C)C1` [LSD], at 5-HT6R (Figure 1, known ligands), the negative logarithm of the Ki (pKi) is 8.94.
`O=S(=O)(c1ccc(I)cc1)n1cc(C(O)CN2CCN(c3ccccn3)CC2)c2ccccc21` (stereo not drawn) [Compound 4f, 1-(1-(4-Iodophenylsulfonyl)-1H-indol-3-yl)-2-(4-(pyridin-2-yl)piperazin-1-yl)ethanol] displayed a melting point of 157 to 158 °C. In addition, in data set [1], the IC50 turned out to be 24600 nM.
Turning to `O=S(=O)(c1ccc(F)cc1)n1cc(C(O)CN2CCN(c3ncccn3)CC2)c2ccccc21` (stereo not drawn) [Compound 4e, 1-(1-(4-Fluorophenylsulfonyl)-1H-indol-3-yl)-2-(4-(pyrimidin-2-yl)piperazin-1-yl)ethanol], the melting point was 72 to 73 °C.
Take `CC(C)c1ccc(S(=O)(=O)n2cc(N3CCN(C)CC3)c3ccccc32)cc1` [IV]: at 5-HT6R (Figure 1, known ligands), the pKi is 8.47.
With `O=S(=O)(c1cccc2ccccc12)n1cc(C(O)CN2CCN(c3ccccn3)CC2)c2ccccc21` (stereo not drawn) [Compound 4i, 1-(1-(Naphthalen-1-ylsulfonyl)-1H-indol-3-yl)-2-(4-(pyridin-2-yl)piperazin-1-yl)ethanol], the melting point is 80 to 81 °C. Further, the concentration for half-maximal inhibition (IC50) in data set [1] amounted to 399 nM.
`Cc1ccc(S(=O)(=O)n2cc(C(=O)CN3CCN(c4ncccn4)CC3)c3ccccc32)cc1` [Compound 3c, 2-(4-(Pyrimidin-2-yl)piperazin-1-yl)-1-(1-tosyl-1H-indol-3-yl)ethanone] yielded a melting point of 133 to 134 °C.
`O=C(CN1CCN(c2ncccn2)CC1)c1cn(S(=O)(=O)c2cccc3ccccc23)c2ccccc12` [Compound 3k, 1-(1-(Naphthalen-1-ylsulfonyl)-1H-indol-3-yl)-2-(4-(pyrimidin-2-yl)piperazin-1-yl)ethanone] came in with a melting point of 88 to 89 °C.
Take `COc1ccccc1N1CCN(CC(O)c2cn(S(=O)(=O)c3ccc(C)cc3)c3ccccc23)CC1` (stereo not drawn) [Compound 4b, 2-(4-(2-Methoxyphenyl)piperazin-1-yl)-1-(1-tosyl-1H-indol-3-yl)ethanol]: the melting point is 86.3 to 86.9 °C and 86 to 87 °C.
`COc1ccc2c(c1)c(CCN(C)C)cn2S(=O)(=O)c1ccccc1` [I]: on 5-HT6R (Figure 1, known ligands), the negative-log Ki (pKi) was 8.64.
As to `O=S(=O)(c1ccc(Cl)cc1)n1cc(C(O)CN2CCN(c3ncccn3)CC2)c2ccccc21` (stereo not drawn) [Compound 4d, 1-(1-(4-Chlorophenylsulfonyl)-1H-indol-3-yl)-2-(4-(pyrimidin-2-yl)piperazin-1-yl)ethanol], the melting point was 76 to 77 °C and 81 to 82 °C.
Consider `Cc1ccc(S(=O)(=O)n2cc(C(O)CN3CCN(c4ccccn4)CC3)c3ccccc32)cc1` (stereo not drawn) [Compound 4a, 2-(4-(Pyridin-2-yl)piperazin-1-yl)-1-(1-tosyl-1H-indol-3-yl)ethanol], for which the melting point is 72.4 to 73.9 °C and 72 to 74 °C. The concentration for half-maximal inhibition (IC50) in data set [1] was found to be 783 nM.
In the case of `Cc1ccc(S(=O)(=O)n2cc(C(O)CN3CCN(c4ncccn4)CC3)c3ccccc32)cc1` (stereo not drawn) [Compound 4c, 2-(4-(Pyrimidin-2-yl)piperazin-1-yl)-1-(1-tosyl-1H-indol-3-yl)ethanol], the melting point is 81 to 82 °C.
In turn, `O=C(CBr)c1c[nH]c2ccccc12` [Compound 1] displayed a melting point of 160.3 to 161 °C. Further, the negative-log Ki (pKi) on 5-HT6R (Table 2 reference value) was 8.70 [1].
`O=C(CN1CCN(c2ncccn2)CC1)c1cn(S(=O)(=O)c2ccc(F)cc2)c2ccccc12` [Compound 3e, 1-(1-(4-Fluorophenylsulfonyl)-1H-indol-3-yl)-2-(4-(pyrimidin-2-yl)piperazin-1-yl)ethanone]: the melting point was in the range of 145 to 146 °C.
In the case of `O=C(CN1CCN(c2ccccn2)CC1)c1cn(S(=O)(=O)c2ccc(I)cc2)c2ccccc12` [Compound 3f, 1-(1-(4-Iodophenylsulfonyl)-1H-indol-3-yl)-2-(4-(pyridin-2-yl)piperazin-1-yl)ethanone], the melting point was in the range of 179 to 180 °C.
Still for that read-out and setting: with `COc1ccccc1N1CCN(CC(=O)c2cn(S(=O)(=O)c3cccc4ccccc34)c3ccccc23)CC1` [Compound 3j, 2-(4-(2-Methoxyphenyl)piperazin-1-yl)-1-(1-(naphthalen-1-ylsulfonyl)-1H-indol-3-yl)ethanone] the figure was 74 to 75 °C.
In the case of `O=S(=O)(c1cccc2ccccc12)n1cc(C(O)CN2CCN(c3ncccn3)CC2)c2ccccc21` (stereo not drawn) [Compound 4k, 1-(1-(Naphthalen-1-ylsulfonyl)-1H-indol-3-yl)-2-(4-(pyrimidin-2-yl)piperazin-1-yl)ethanol], the melting point fell in the range of 82 to 83 °C. For the same molecule, the IC50 in data set [1] was 688 nM.
